Laboratory results: paper PMC6321168, “Comparative Study on Excretive Characterization of Main Components in Herb Pair Notoginseng-Safflower and Single Herbs by LC–MS/MS” (Pharmaceutics, 2018)

Assay: Fecal excretion study in rats after oral NS, SF or CNS (LC–MS/MS)
Format: in vivo
Conditions: rat feces
Description: The animal room was set at constant temperature of 20 ± 2 °C with humidity of 50 ± 20% and 12/12 h light/dark cycle.
Eighteen male rats were fasted for 12 h before starting the experiment. The rats were divided into three groups at random (n = 6) and received NS (60 mg/kg), SF (50 mg/kg), and NS (60 mg/kg) + SF (50 mg/kg), respectively, by oral gavage. The rats were placed in separate metabolic cages. The urine samples were collected at 0–2, 2–4, 4–6, 6–8, 8–12, 12–24, 24–36, 36–48, 48–72, 72–96, and 96–120 h. The feces samples were collected at 0–4, 4–8, 8–12, 12–24, 24–36, 36–48, 48–72, 72–96, and 96–120 h. The urine volume was recorded and the dry feces were measured for each collection period. Samples were stored at −80 °C until analysis.
Feces samples were homogenized in ultrapure water (1 g/15 mL), soaked for 30 min, ultrasonically extracted for 30 min and centrifuged at 9000 rpm for 8 min. An aliquot of 200 μL feces water extraction solution was mixed with 10 μL of IS and then extracted three times with water-saturated n-BuOH (150 μL). The upper organic phase was combined and evaporated to dryness using a ZLS-2 vacuum centrifugal concentrator. The residue was treated as the urine sample and a 1-μL aliquot was injected for LC–MS analysis.
Ultra fast liquid chromatography (UFLC) analysis was performed using a Shimadzu UFLC system (DGU-20A3R Degasser; LC-20AD pump; SIL-20AXR Autosampler; CTO-20AC Column Oven) (Nakagyo-Ku, Koyoto, Japan). […] Because of the different endogenous substances in the urine and feces samples, different elution gradients were used to alleviate the matrix effects for the analytes.
The mass spectrometric detection was performed on an ABSciex 4500 Qtrap mass spectrometer (ABSciex, Foster City, CA, USA) equipped with a negative electrospray ionization (ESI) interface using multiple reaction monitoring (MRM). The MS parameters were optimized under the selected ion monitoring conditions as follows: curtain gas, 35 psi; ionspray voltage, 4500 V; turbo gas temperature, 450 °C; GS1, 45 psi; GS2, 45 psi. All data were acquired and analyzed by Analyst software (Versions 1.6.2) from ABSciex.
The accumulative excretion percentage was calculated for each analyte as follows. Excretion at time (t) = [concentration of the analyte (ng/mL) at t] × total urine (or feces) volume (mL) at t. The cumulative excretion up to time t (mg) was expressed as a percent (%) cumulative excretion by dividing by the total amount of the analyte ingested (mg): % Cumulative Excretion = 100 × (Σt excretiont) total ingested.

CC(C)=CCC[C@](C)(O[C@@H]1O[C@H](CO)[C@@H](O)[C@H](O)[C@H]1O)[C@H]1CC[C@]2(C)[C@@H]1[C@H](O)C[C@@H]1[C@@]3(C)CC[C@H](O)C(C)(C)[C@@H]3[C@@H](O[C@@H]3O[C@H](CO)[C@@H](O)[C@H](O)[C@H]3O)C[C@]12C [ginsenoside Rg1]
concentration at 4 h (male, Sprague Dawley, oral CNS 110 mg/kg, 4 h): 1100 ± 1520 ng/mL
concentration at 8 h (male, Sprague Dawley, oral CNS 110 mg/kg, 8 h): 1710 ± 54 ng/mL
concentration at 12 h (male, Sprague Dawley, oral CNS 110 mg/kg, 12 h): 1110 ± 221 ng/mL
concentration at 24 h (male, Sprague Dawley, oral CNS 110 mg/kg, 24 h): 980 ± 138 ng/mL
concentration at 36 h (male, Sprague Dawley, oral CNS 110 mg/kg, 36 h): 959 ± 40 ng/mL
concentration at 48 h (male, Sprague Dawley, oral CNS 110 mg/kg, 48 h): 943 ± 49 ng/mL
concentration at 72 h (male, Sprague Dawley, oral CNS 110 mg/kg, 72 h): 324 ± 249 ng/mL
concentration at 96 h (male, Sprague Dawley, oral CNS 110 mg/kg, 96 h): 24 ± 24 ng/mL
concentration at 4 h (male, Sprague Dawley, oral NS 60 mg/kg, 4 h): 1510 ± 256 ng/mL
concentration at 8 h (male, Sprague Dawley, oral NS 60 mg/kg, 8 h): 473 ± 16 ng/mL
concentration at 12 h (male, Sprague Dawley, oral NS 60 mg/kg, 12 h): 1090 ± 88 ng/mL
concentration at 24 h (male, Sprague Dawley, oral NS 60 mg/kg, 24 h): 2040 ± 55 ng/mL
concentration at 36 h (male, Sprague Dawley, oral NS 60 mg/kg, 36 h): 2020 ± 54 ng/mL
concentration at 48 h (male, Sprague Dawley, oral NS 60 mg/kg, 48 h): 2080 ± 47 ng/mL
concentration at 72 h (male, Sprague Dawley, oral NS 60 mg/kg, 72 h): 116 ± 8 ng/mL
concentration at 96 h (male, Sprague Dawley, oral NS 60 mg/kg, 96 h): 23 ± 1 ng/mL
concentration at 120 h (male, Sprague Dawley, oral NS 60 mg/kg, 120 h): 22 ± 2 ng/mL
Accumulative excretion amount (oral CNS 110 mg/kg, 4 h): 14.286 ± 20.907 µg
Accumulative excretion percentage (oral CNS 110 mg/kg, 4 h): 0.474±0.681%
Excretion amount (oral CNS 110 mg/kg, 4 h): 14.286 ± 20.907 µg
Accumulative excretion amount (oral CNS 110 mg/kg, 8 h): 39.952 ± 21.244 µg
Accumulative excretion percentage (oral CNS 110 mg/kg, 8 h): 1.303±0.695%
Accumulative excretion amount (oral CNS 110 mg/kg, 12 h): 56.860 ± 20.559 µg
Excretion amount (oral CNS 110 mg/kg, 12 h): 16.908 ± 6.636 µg
Accumulative excretion amount (oral CNS 110 mg/kg, 24 h): 71.363 ± 24.096 µg
Accumulative excretion percentage (oral CNS 110 mg/kg, 24 h): 2.331±0.796%
Excretion amount (oral CNS 110 mg/kg, 24 h): 14.504 ± 4.143 µg
Accumulative excretion amount (oral CNS 110 mg/kg, 36 h): 85.729 ± 27.211 µg
Accumulative excretion percentage (oral CNS 110 mg/kg, 36 h): 2.802±0.894%
Excretion amount (oral CNS 110 mg/kg, 36 h): 14.365 ± 4.335 µg
Accumulative excretion amount (oral CNS 110 mg/kg, 48 h): 99.901 ± 30.374 µg
Accumulative excretion percentage (oral CNS 110 mg/kg, 48 h): 3.265±0.994%
Excretion amount (oral CNS 110 mg/kg, 48 h): 14.173 ± 4.533 µg
Accumulative excretion amount (oral CNS 110 mg/kg, 72 h): 105.113 ± 30.466 µg
Accumulative excretion percentage (oral CNS 110 mg/kg, 72 h): 3.431±0.996%
Excretion amount (oral CNS 110 mg/kg, 72 h): 5.212 ± 4.367 µg
Accumulative excretion amount (oral CNS 110 mg/kg, 96 h): 105.509 ± 30.482 µg
Accumulative excretion percentage (oral CNS 110 mg/kg, 96 h): 3.441±0.996%
Excretion amount (oral CNS 110 mg/kg, 96 h): 0.396 ± 0.402 µg
Accumulative excretion amount (oral CNS 110 mg/kg, 120 h): 105.509 ± 30.482 µg
Accumulative excretion percentage (oral CNS 110 mg/kg, 120 h): 3.442±0.994%
Accumulative excretion amount (oral NS 60 mg/kg, 4 h): 21.063 ± 5.410 µg
Accumulative excretion percentage (oral NS 60 mg/kg, 4 h): 0.612±0.145%
Excretion amount (oral NS 60 mg/kg, 4 h): 21.063 ± 5.410 µg
Accumulative excretion amount (oral NS 60 mg/kg, 8 h): 27.855 ± 7.375 µg
Accumulative excretion percentage (oral NS 60 mg/kg, 8 h): 0.798±0.216%
Excretion amount (oral NS 60 mg/kg, 8 h): 6.792 ± 2.122 µg
Accumulative excretion percentage (oral NS 60 mg/kg, 12 h): 1.244±0.343%
Excretion amount (oral NS 60 mg/kg, 12 h): 15.587 ± 4.879 µg
Accumulative excretion amount (oral NS 60 mg/kg, 24 h): 72.682 ± 20.662 µg
Accumulative excretion percentage (oral NS 60 mg/kg, 24 h): 2.071±0.592%
Excretion amount (oral NS 60 mg/kg, 24 h): 29.239 ± 8.754 µg
Accumulative excretion amount (oral NS 60 mg/kg, 36 h): 101.659 ± 29.524 µg
Accumulative excretion percentage (oral NS 60 mg/kg, 36 h): 2.904±0.845%
Excretion amount (oral NS 60 mg/kg, 36 h): 28.977 ± 8.942 µg
Accumulative excretion amount (oral NS 60 mg/kg, 48 h): 131.700 ± 39.092 µg
Accumulative excretion percentage (oral NS 60 mg/kg, 48 h): 3.751±1.111%
Excretion amount (oral NS 60 mg/kg, 48 h): 30.041 ± 9.594 µg
Accumulative excretion amount (oral NS 60 mg/kg, 72 h): 133.372 ± 39.629 µg
Accumulative excretion percentage (oral NS 60 mg/kg, 72 h): 3.801±1.132%
Excretion amount (oral NS 60 mg/kg, 72 h): 1.673 ± 0.554 µg
Accumulative excretion percentage (oral NS 60 mg/kg, 96 h): 3.814±1.133%
Excretion amount (oral NS 60 mg/kg, 96 h): 0.327 ± 0.104 µg
Accumulative excretion percentage (oral NS 60 mg/kg, 120 h): 3.824±1.132%
Excretion amount (oral NS 60 mg/kg, 120 h): 0.315 ± 0.110 µg
